{"source": "paper PMC9060980", "about": "(Evidence-based Complementary and Alternative Medicine : eCAM, 2022)", "key": {"[1]": {"tested_on": "A549 tumor", "assay_type": "in vivo, BALB/c mice", "design": "tumor weight: unit not given beside the values", "experimental": "(§1) Tumor-bearing mice were weighed using an electronic scale and tumor sizes were surveyed with vernier calipers, and these procedures were conducted twice a week. Tumor weight was calculated from the tumor sizes according to the reported formula [30]: tumor volume (mm^3) = (tumor length in mm) × (tumor width in mm)^2/2. One and a half hours after the last administration on Day 34, all mice were sacrificed after blood was collected from the orbital sockets using fine capillaries. […] The serum was separated and analyzed by method described previously."}, "[2]": {"assay": "Plasma concentration of paclitaxel in A549 xenograft mice", "assay_type": "in vivo", "conditions": "BALB/c, mouse, intraperitoneal, 10 mg/kg, plasma concentration of paclitaxel […] after administration, PTX 10 mg/kg I.P., PTX + WAB 10 + 50 mg/kg I.G., Day 34, mean", "procedure": "Tumor-bearing mice were weighed using an electronic scale and tumor sizes were surveyed with vernier calipers, and these procedures were conducted twice a week. Tumor weight was calculated from the tumor sizes according to the reported formula [30]: tumor volume (mm^3) = (tumor length in mm) × (tumor width in mm)^2/2. One and a half hours after the last administration on Day 34, all mice were sacrificed after blood was collected from the orbital sockets using fine capillaries. […] The serum was separated and analyzed by method described previously [7]."}, "[3]": {"tested_on": "A549 cells", "assay": "MTT assay in A549", "assay_type": "cell-based", "conditions": "Homo sapiens, 50 nM, 24 h, read-out: inhibition of the proliferation of A549 cells", "experimental": "100 μL A549 cells (2 × 10^5 cells/mL) were seeded onto a 96-well plate. […] The same volume of complete culture medium served as the negative control. Then, 20 μl MTT solution (5 mg/mL) was added to each well, and the plates were incubated for 4 h. The medium was replaced by 150 μl DMSO, which solubilized the MTT formazan salt. The absorbance of the solution was measured on a microplate reader (Vrioskan Flash, Thermo Scientific, USA) at 490 nm and the results were expressed as a percentage of the control cells."}, "[4]": {"tested_on": "A549 cells", "assay": "Flow cytometry with Annexin V/PI staining", "assay_type": "cell-based, human", "conditions": "PTX 50 nM, 24 h", "experimental": "Afterward, they were washed with PBS, counted, and adjusted to 1 × 10^6 cells/ml. Apoptosis of A549 cells was determined by flow cytometry (FC500; Beckman Coulter, Brea, CA, USA) using the Annexin V-fluorescein isothiocyanate (FITC)/propidium iodide (PI) kit (MULTISCIENCES (LIANKE) BIOTECH, CO., LTD, Hangzhou, China). Staining was performed in accordance with the method described in the manufacturer's instructions. The rate of apoptosis was analyzed using MCF software (Beckman Coulter, Brea, CA, USA)."}, "[5]": {"assay": "Mortality, survival, side effect and body weight of A549 xenograft-bearing mice", "experimental": "as §1"}, "[6]": {"tested_on": "Caco-2 cells", "assay": "Caco-2 bidirectional transport of paclitaxel", "conditions": "paclitaxel 1 μg/mL alone or with verapamil 100 μM", "procedure": "(§2) The apical (AP) media volume was 500 μL and the basolateral (BL) volume was 1500 μL. […] Verapamil serves as a positive control for this experiment and was added to both compartments prior to initiation. At 30, 60, 90, and 120 min, 100 μL of media was removed from the receiver compartment followed by the addition of 100 μL of preheated buffer as replenishment."}, "[7]": {"assay": "in vitro", "conditions": "human, Caco-2", "procedure": "as §2"}, "[8]": {"target": "T1, P-gp (Homo sapiens, UniProt P08183)", "T1 construct": "expressed in transfected cells; host or cells: MDCK-MDR1 (Madin-Darby canine kidney cells transfected with human MDR1)", "T1 sequence (P08183 whole entry)": "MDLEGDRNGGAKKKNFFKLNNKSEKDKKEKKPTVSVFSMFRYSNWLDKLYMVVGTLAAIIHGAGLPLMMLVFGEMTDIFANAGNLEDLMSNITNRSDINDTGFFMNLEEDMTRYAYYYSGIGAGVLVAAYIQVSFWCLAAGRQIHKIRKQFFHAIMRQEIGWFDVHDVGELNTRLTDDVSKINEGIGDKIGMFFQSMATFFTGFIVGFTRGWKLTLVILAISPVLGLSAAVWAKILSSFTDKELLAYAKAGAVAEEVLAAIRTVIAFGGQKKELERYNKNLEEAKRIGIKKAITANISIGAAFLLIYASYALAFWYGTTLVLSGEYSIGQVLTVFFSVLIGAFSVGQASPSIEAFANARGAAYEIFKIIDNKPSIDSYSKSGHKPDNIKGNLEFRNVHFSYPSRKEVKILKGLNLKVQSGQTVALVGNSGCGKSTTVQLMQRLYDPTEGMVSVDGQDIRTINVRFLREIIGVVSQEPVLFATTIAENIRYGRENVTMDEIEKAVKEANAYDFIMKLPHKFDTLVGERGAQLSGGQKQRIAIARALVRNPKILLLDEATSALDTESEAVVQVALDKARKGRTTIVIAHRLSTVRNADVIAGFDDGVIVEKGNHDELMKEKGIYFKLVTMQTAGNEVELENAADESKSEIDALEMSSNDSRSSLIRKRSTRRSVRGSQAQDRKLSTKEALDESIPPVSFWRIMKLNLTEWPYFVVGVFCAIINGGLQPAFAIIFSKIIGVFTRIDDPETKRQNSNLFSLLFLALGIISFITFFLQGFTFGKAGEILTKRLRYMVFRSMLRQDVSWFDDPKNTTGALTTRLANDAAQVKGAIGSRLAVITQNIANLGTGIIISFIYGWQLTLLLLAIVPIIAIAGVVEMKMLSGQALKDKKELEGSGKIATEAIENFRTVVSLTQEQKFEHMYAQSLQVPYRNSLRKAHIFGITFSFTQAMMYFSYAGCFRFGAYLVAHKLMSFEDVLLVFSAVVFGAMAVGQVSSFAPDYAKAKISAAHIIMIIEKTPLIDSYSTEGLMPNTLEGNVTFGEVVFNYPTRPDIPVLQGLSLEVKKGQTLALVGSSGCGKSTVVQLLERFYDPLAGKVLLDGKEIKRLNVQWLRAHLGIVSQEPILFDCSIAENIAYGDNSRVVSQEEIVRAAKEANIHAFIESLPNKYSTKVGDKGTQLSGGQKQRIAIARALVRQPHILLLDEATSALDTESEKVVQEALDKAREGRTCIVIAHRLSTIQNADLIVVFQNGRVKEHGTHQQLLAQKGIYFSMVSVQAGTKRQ", "assay": "Permeation of PTX through MDCK–MDR1 cell monolayers", "assay_type": "in vitro ADME", "conditions": "dog, PTX alone or with VRP 100 μM", "experimental": "To evaluate the inhibitory effect of flavonoids or lignoids on P-gp-induced reflux of PTX across the cultured cell monolayer, MDCK–MDR1cells were seeded on to Falcon 24-multiwell insert system at a density of 6 × 10^5 cells/mL. The detailed method is applied as previous research with some modification (such as time points of sampling including 0, 30, 60, 90, 120 min are selected, and C0 of PTX in the apical compartment is 1 μg/mL).\nThe apical (AP) media volume was 500 μL and the basolateral (BL) volume was 1500 μL."}, "[9]": {"tested_on": "BCL-2 family proteins' expressions in A549", "assay": "Western blotting of BCL-2 family proteins", "assay_type": "cell-based, human", "conditions": "PTX 50 nM, 24 h", "experimental": "Total cell extracts were lysed in lysis buffer (Ripa, Solarbio, China), and protein extract (60 μg) was added into each well of 10% gel and separated through gel electrophoresis. Gels were soaked in transfer buffer (30 mM glycine, 16 mM Tris-HCl, and 20% methanol) and proteins in the gels were then blotted to polyvinylidene difluoride (PVDF) membranes. Nonfat dry milk in PBST (137 mM NaCl, […], 100 mM Na2HPO4, 20 mM KH2PO4 0.05% tween 20, pH 7.4) was used for blocking nonspecific binding sites. The polyvinylidene difluoride membranes were then incubated with primary antibodies: anti-BCL-2 mAb (1 : 1000), anti-BAK mAB (1 : 2000), anti-MCL-1 pAb (1 : 3000), anti-pMCL-1 mAb (1 : 2000), anti-cyclinB1 mAb (1 : 1000), or anti-b-actin mAb (1 : 5000). Then, secondary antibodies (anti-mouse 1 : 5000, anti-rabbit–1:5000) were applied to the membranes. The ECL western blotting detection kit was used for detecting protein bands in the membranes. Protein bands were detected using the ECL Plus Kit (Huaan biotech, Hangzhou, China), imaged on Tanon 2000. Densitometry analysis was performed using ImageJ software to calculate the relative expression change after normalizing with β-actin."}, "[10]": {"conditions": "PTX 10 mg/kg I.P., PTX + WAB 10 + 50 mg/kg I.G."}, "[11]": {"conditions": "PTX 10 mg/kg I.P., PTX + WAB 10 + 50 mg/kg I.G., Day 34"}}, "note": "Several values for one entry are separate records, joined by “and”; a condition that tells them apart may be missing. Identical values can stand only once. Like-named read-outs stand apart in the source and are kept apart here.", "data": [{"smiles": "CC(=O)O[C@H]1C(=O)[C@@]2(C)[C@H]([C@H](OC(=O)c3ccccc3)[C@]3(O)C[C@H](OC(=O)[C@H](O)[C@@H](NC(=O)c4ccccc4)c4ccccc4)C(C)=C1C3(C)C)[C@]1(OC(C)=O)CO[C@@H]1C[C@@H]2O", "note": "[Paclitaxel]", "values": [{"measurement": "tumor volume, group mean", "setting": "[1]; Day 1, PTX 10 mg/kg I.P., PTX+WAB 10+50 mg/kg I.G.", "value": 80.63, "unit": "mm^3"}, {"measurement": "tumor volume, group mean", "setting": "[1]; Day 4, PTX 10 mg/kg I.P., PTX+WAB 10+50 mg/kg I.G.", "value": 88.36, "unit": "mm^3"}, {"measurement": "tumor volume, group mean", "setting": "[1]; Day 7, PTX 10 mg/kg I.P., PTX+WAB 10+50 mg/kg I.G.", "value": 123.87, "unit": "mm^3"}, {"measurement": "tumor volume, group mean", "setting": "[1]; Day 10, PTX 10 mg/kg I.P., PTX+WAB 10+50 mg/kg I.G.", "value": 140.25, "unit": "mm^3"}, {"measurement": "tumor volume, group mean", "setting": "[1]; Day 13, PTX 10 mg/kg I.P., PTX+WAB 10+50 mg/kg I.G.", "value": 170.16, "unit": "mm^3"}, {"measurement": "tumor volume, group mean", "setting": "[1]; Day 16, PTX 10 mg/kg I.P., PTX+WAB 10+50 mg/kg I.G.", "value": 131.58, "unit": "mm^3"}, {"measurement": "tumor volume, group mean", "setting": "[1]; Day 19, PTX 10 mg/kg I.P., PTX+WAB 10+50 mg/kg I.G.", "value": 181.34, "unit": "mm^3"}, {"measurement": "tumor volume, group mean", "setting": "[1]; Day 22, PTX 10 mg/kg I.P., PTX+WAB 10+50 mg/kg I.G.", "value": 174.31, "unit": "mm^3"}, {"measurement": "tumor volume, group mean", "setting": "[1]; Day 25, PTX 10 mg/kg I.P., PTX+WAB 10+50 mg/kg I.G.", "value": 203.28, "unit": "mm^3"}, {"measurement": "tumor volume, group mean", "setting": "[1]; Day 28, PTX 10 mg/kg I.P., PTX+WAB 10+50 mg/kg I.G.", "value": 256.78, "unit": "mm^3"}, {"measurement": "tumor volume, group mean", "setting": "[1]; Day 31, PTX 10 mg/kg I.P., PTX+WAB 10+50 mg/kg I.G.", "value": 273.56, "unit": "mm^3"}, {"measurement": "tumor volume, group mean", "setting": "[1]; Day 34, PTX 10 mg/kg I.P., PTX+WAB 10+50 mg/kg I.G.", "value": 263.74, "unit": "mm^3"}, {"measurement": "activity against A549 tumor growth", "setting": "[1]; [10]", "value": "weak inhibitory activity against A549"}, {"measurement": "Inhibition rate", "setting": "[1]; [11]", "value": "38.60 ± 64.87", "unit": "%"}, {"measurement": "tumor weight", "setting": "[1]; PTX 10 mg/kg I.P., PTX+WAB 10+50 mg/kg I.G., Day 34, individual animals, listed as PTX", "value": "0.2469 and 0.1592 and 0.156 and 0.1923 and 0.1802 and 0.1183 and 0.1699"}, {"measurement": "Mean (growth factor)", "setting": "[1]; PTX 10 mg/kg, PTX+WAB 10+50 mg/kg, from tumor size Day 34/Day 1", "value": 13.43}, {"measurement": "concentration at […]", "setting": "[2]", "value": 201, "unit": "ng/mL"}, {"measurement": "inhibition at 0.05 µM", "setting": "[3]", "value": "~28", "unit": "%"}, {"measurement": "percentage of cells Annexin V positive", "setting": "[4]", "value": "approx. 16.3%"}, {"measurement": "apoptosis", "setting": "[4]; with or without HDS-2 80 μg/mL", "value": 17.5, "unit": "%"}, {"measurement": "percentage of cells PI positive (necrosis)", "setting": "[4]; with or without HDS-2 80 μg/mL", "value": "approx. 22.8%"}, {"measurement": "Survival rate", "setting": "[5]; [10]", "value": 66.7, "unit": "%"}, {"measurement": "Mortality (dead mice)", "setting": "[5]; [11]", "value": 4}, {"measurement": "mortality %", "setting": "[5]; PTX group, PTX+WAB 10+50 mg/kg, Day 34", "value": 33.33, "unit": "%"}, {"measurement": "Papp AP–BL of paclitaxel", "setting": "[6]", "value": "0.25 ± 0.43 ×10^−6 cm/s"}, {"measurement": "Papp BL–AP of paclitaxel", "setting": "[6]", "value": "75.26 ± 7.43 ×10^−6 cm/s"}, {"measurement": "Papp A→B at 120 min, 1 μg/mL", "setting": "[7]", "value": 0.252, "unit": "×10⁻⁶ cm/s"}, {"measurement": "Papp B→A at 120 min, 1 μg/mL", "setting": "[7]", "value": 75.3, "unit": "×10⁻⁶ cm/s"}, {"measurement": "Papp B→A at 120 min, 1 μg/mL", "setting": "[8]", "value": "86.4 ± 14.1", "unit": "×10⁻⁶ cm/s"}, {"measurement": "expressions of cyclinB1, BAK, BCL-2, MCL-1, and pMCL-1", "setting": "[9]", "value": "significantly upregulated"}]}]}
